The term IC50 denotes the point on the concentration scale where inhibition reaches its midpoint. Read a high IC50 as lower potency.

One experiment addresses BIR3 domain of XIAP (Homo sapiens (Human), UniProt P98170). The experiment can be described thus: TR-FRET assay for BIR3 (inhibition of binding of XIAP BIR3 domain to Peptide A). The conditions noted are these: 6x His-tagged BIR3 domain (aa 241-356 of XIAP), 20 nM Peptide A. On the procedure:
(§1) TR-FRET Assay for BIR2 and BIR3
(§2) The peptides were labeled with the fluorescent tags FITC or TAMRA and Kd values were determined by fluorescence polarization assay. […] The peptide sequence was derivatized with biotin to provide […]-(ε-biotin)-OH 1:2 TFA as the substrate for the TR-FRET assay.
The sequence of the BIR3 domain used for the TR-FRET assay is
(§3) Time-resolved fluorescence resonance energy transfer (TR-FRET) signals were measured 1 hour later at room temperature. Test compound potency was assessed at 10 serially diluted concentrations. Percentage of inhibition at each concentration was determined to generate an IC50 value for each test compound.
(Time-resolved FRET reads energy transfer from a long-lived donor to a nearby acceptor.)

A further experiment addresses BIR2 domain of XIAP (Homo sapiens (Human), UniProt P98170, C202A/C213G). The experiment can be described thus: TR-FRET assay for BIR2 (inhibition of binding of XIAP BIR2 domain to Peptide A). The conditions noted are these: 6x His-tagged BIR2 domain (aa 124-240 of XIAP), 20 nM Peptide A. On the procedure:
as §1, §2
The XIAP protein sequence was obtained from the SWISS-PROT protein sequence database and the BIR2 and BIR3 domains were derived from that. The sequence of the BIR2 domain used for the TR-FRET assay is
as §3

Chain of BIR2 domain of XIAP (P98170 other isoform, or with tags, fused parts or gaps, stated change not applied): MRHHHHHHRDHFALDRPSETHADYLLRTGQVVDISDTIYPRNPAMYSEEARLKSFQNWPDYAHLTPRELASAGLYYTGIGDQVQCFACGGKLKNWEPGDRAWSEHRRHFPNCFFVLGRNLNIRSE
Chain of BIR3 domain of XIAP (P98170 other isoform, or with tags, fused parts or gaps): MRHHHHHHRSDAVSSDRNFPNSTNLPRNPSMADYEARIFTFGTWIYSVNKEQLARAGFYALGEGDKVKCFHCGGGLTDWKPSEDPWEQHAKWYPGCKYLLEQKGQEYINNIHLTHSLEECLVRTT

Turning to `CN[C@@H](C)C(=O)N[C@H](C(=O)N1CCc2ccc(F)cc2[C@@H]1C(=O)Nc1c(F)cccc1F)C(C)C` [Example 41, N-(2,6-difluorophenyl)-7-fluoro-2-((S)-3-methyl-2-((S)-2-(methylamino)propanamido)butanoyl)-1,2,3,4-tetrahydroisoquinoline-1-carboxamide], the IC50 on BIR3 domain of XIAP is above 54.8 µM; at BIR2 domain of XIAP, 2350 nM.
For the molecule `CN[C@@H](C)C(=O)N[C@H](C(=O)N1CCc2ccc(F)cc2[C@H]1C(=O)Nc1c(F)cccc1F)C(C)C` [Example 42, N-(2,6-difluorophenyl)-7-fluoro-2-((S)-3-methyl-2-((S)-2-(methylamino)propanamido)butanoyl)-1,2,3,4-tetrahydroisoquinoline-1-carboxamide], the IC50 was above 54.8 µM at BIR3 domain of XIAP and 27 nM at BIR2 domain of XIAP.
On the same counts, the results for `CN[C@@H](C)C(=O)N[C@H](C(=O)N1CCc2ccc(Cl)cc2[C@@H]1C(=O)Nc1c(F)cccc1F)C(C)C` [Example 44, 7-chloro-N-(2,6-difluorophenyl)-2-((S)-3-methyl-2-((S)-2-(methylamino)propanamido)butanoyl)-1,2,3,4-tetrahydroisoquinoline-1-carboxamide] are above 54.8 µM and 4710 nM.
As to `CN[C@@H](C)C(=O)N[C@H](C(=O)N1CCc2ccc(Cl)cc2[C@H]1C(=O)Nc1c(F)cccc1F)C(C)C` [Example 45, 7-chloro-N-(2,6-difluorophenyl)-2-((S)-3-methyl-2-((S)-2-(methylamino)propanamido)butanoyl)-1,2,3,4-tetrahydroisoquinoline-1-carboxamide], the figures for the 50% inhibitory concentration (IC50) on BIR3 domain of XIAP and at BIR2 domain of XIAP were above 54.8 µM and 47 nM, respectively.

For the origin of these results see patent publication US9422332B2, “Azaheterocycles as BIR2 and/or BIR3 inhibitors” (Hoffmann-La Roche Inc., priority 2012, dated 2016).
